Results taken from patent US20240382482A1, “PLASMA KALLIKREIN INHIBITORS” (TAKEDA PHARMACEUTICAL COMPANY LIMITED, priority 2021, published 2024).

Target: human activated kallikrein enzyme (Homo sapiens, UniProt P03952)
Assay: Inhibition of human activated kallikrein enzyme, fluorogenic peptide substrate assay (500 pM enzyme format)
Format: biochemical
Conditions: 500 pM activated kallikrein, 300 μM PFR-AMC substrate, 30 min preincubation, 10 min reaction, room temperature; read-out: Primary Dose Response Assay: Average EC50
In short: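 500 pM enzyme preincubated 30 min at room temperature with inhibitor in 20 mM Tris pH 7.5, 150 mM NaCl, 1 mM EDTA, 0.1% PEG-400, 0.1% Triton X-100. Reaction started with 300 μM PFR-AMC and run 10 min at room temperature. AMC fluorescence read at ex 380/em 460 nm, and EC50 values reported as ranges.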

Sequence of human activated kallikrein enzyme (P03952 391-638 limits assumed): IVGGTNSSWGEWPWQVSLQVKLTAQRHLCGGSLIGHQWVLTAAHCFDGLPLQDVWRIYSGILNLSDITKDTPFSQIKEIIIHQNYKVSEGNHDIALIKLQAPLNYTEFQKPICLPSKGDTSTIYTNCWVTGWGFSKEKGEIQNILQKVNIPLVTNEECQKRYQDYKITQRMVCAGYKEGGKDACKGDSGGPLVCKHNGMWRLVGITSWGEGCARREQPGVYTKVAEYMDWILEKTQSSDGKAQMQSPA
Sequence of human activated kallikrein enzyme (P03952 20-390 partner limits assumed): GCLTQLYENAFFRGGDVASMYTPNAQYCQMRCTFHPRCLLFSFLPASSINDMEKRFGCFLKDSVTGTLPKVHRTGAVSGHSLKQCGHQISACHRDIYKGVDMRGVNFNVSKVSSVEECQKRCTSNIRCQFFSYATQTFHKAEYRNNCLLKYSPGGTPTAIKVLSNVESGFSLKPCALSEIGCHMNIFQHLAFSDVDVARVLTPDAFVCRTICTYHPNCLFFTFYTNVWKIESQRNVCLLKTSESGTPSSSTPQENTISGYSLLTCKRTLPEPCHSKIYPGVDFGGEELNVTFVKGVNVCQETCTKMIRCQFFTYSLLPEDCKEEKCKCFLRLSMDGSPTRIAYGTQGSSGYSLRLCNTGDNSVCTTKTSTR

Structure (SMILES) | EC50 [nM]
O=C(Cc1ncn2ccc(Cl)cc12)Nc1cncnc1NCc1cn2cc(C3CC3)cc(CO)c2n1 [Example 41, 2-(7-chloroimidazo[1,5-a]pyridin-1-yl)-N-(4-(((6-cyclopropyl-8-(hydroxymethyl)imidazo[1,2-a]pyridin-2-yl)methyl)amino)pyrimidin-5-yl)acetamide] | 5 to 50
Cc1cc(C(=N)N)cc(C)c1CNc1cc(NCc2cn3cc(C4CC4)ccc3n2)ncn1 [Example 99, 4-(((6-(((6-cyclopropylimidazo[1,2-a]pyridin-2-yl)methyl)amino)pyrimidin-4-yl)amino)methyl)-3,5-dimethylbenzimidamide] | ≤ 5
O=C(Cc1nncc2ccc(Cl)cc12)Nc1cc(NCc2cn3cc(C4CC4)ccc3n2)ncn1 [Example 105, 2-(7-chlorophthalazin-1-yl)-N-(6-(((6-cyclopropylimidazo[1,2-a]pyridin-2-yl)methyl)amino)pyrimidin-4-yl)acetamide] | 5 to 50
CCOC(=O)c1nc(NCc2cn3cc(C4CC4)ccc3n2)cc(NC(=O)Cc2ncn3ccc(Cl)cc23)n1 [Example 20, ethyl 4-(2-(7-chloroimidazo[1,5-a]pyridin-1-yl)acetamido)-6-(((6-cyclopropylimidazo[1,2-a]pyridin-2-yl)methyl)amino)pyrimidine-2-carboxylate] | ≤ 5
N#Cc1cc(C2CC2)cn2cc(CNc3cc(NC(=O)Cc4ncn5ccc(Cl)cc45)ncn3)nc12 [Example 13, 2-(7-chloroimidazo[1,5-a]pyridin-1-yl)-N-(6-(((8-cyano-6-cyclopropylimidazo[1,2-a]pyridin-2-yl)methyl)amino)pyrimidin-4-yl)acetamide] | ≤ 5
O=C(Nc1cc(NCc2cn3cc(C4CC4)ccc3n2)ccn1)C1CCc2ccc(Cl)cc2C1 (centres unmarked) [Example 120, 7-chloro-N-(4-(((6-cyclopropylimidazo[1,2-a]pyridin-2-yl)methyl)amino)pyridin-2-yl)-1,2,3,4-tetrahydronaphthalene-2-carboxamide] | 500 to 9000
O=C(Cn1ccc2ccc(Cl)cc21)Nc1cc(NCc2cn3cc(C4CC4)ccc3n2)ccn1 [Example 115, 2-(6-chloro-1H-indol-1-yl)-N-(4-(((6-cyclopropylimidazo[1,2-a]pyridin-2-yl)methyl)amino)pyridin-2-yl)acetamide] | 500 to 9000
O=C(Cc1cnc2[nH]cc(Cl)c2c1)Nc1cc(NCc2cn3cc(C4CC4)ccc3n2)ncn1 [Example 129, 2-(3-chloro-1H-pyrrolo[2,3-b]pyridin-5-yl)-N-(6-(((6-cyclopropylimidazo[1,2-a]pyridin-2-yl)methyl)amino)pyrimidin-4-yl)acetamide] | 50 to 500
Cc1cc(C(=N)N)cc(C)c1CNc1cc(OCc2cn3cc(C4CC4)ccc3n2)nc(-c2nn[nH]n2)n1 [Example 91, 4-(((6-((6-cyclopropylimidazo[1,2-a]pyridin-2-yl)methoxy)-2-(2H-tetrazol-5-yl)pyrimidin-4-yl)amino)methyl)-3,5-dimethylbenzimidamide] | ≤ 5
O=C(Cc1cc2c(Cl)c[nH]c2cc1F)Nc1cc(NCc2cn3cc(C4CC4)ccc3n2)ncn1 [Example 131, 2-(3-chloro-6-fluoro-1H-indol-5-yl)-N-(6-(((6-cyclopropylimidazo[1,2-a]pyridin-2-yl)methyl)amino)pyrimidin-4-yl)acetamide] | 500 to 9000
CC(=O)c1nc(NCc2cn3cc(C4CC4)ccc3n2)cc(NC(=O)Cc2ncn3ccc(Cl)cc23)n1 [Example 102, N-(2-acetyl-6-(((6-cyclopropylimidazo[1,2-a]pyridin-2-yl)methyl)amino)pyrimidin-4-yl)-2-(7-chloroimidazo[1,5-a]pyridin-1-yl)acetamide] | ≤ 5
CC(O)c1nc(NCc2cn3cc(C4CC4)ccc3n2)cc(NC(=O)Cc2ncn3ccc(Cl)cc23)n1 (centres unmarked) [Example 103, 2-(7-chloroimidazo[1,5-a]pyridin-1-yl)-N-(6-(((6-cyclopropylimidazo[1,2-a]pyridin-2-yl)methyl)amino)-2-(1-hydroxyethyl)pyrimidin-4-yl)acetamide] | ≤ 5
CCOC(=O)CCc1nc(NCc2c(C)cc(C(=N)NO)cc2C)cc(OCc2cn3cc(C4CC4)ccc3n2)n1 [Example 73, ethyl 3-(4-((6-cyclopropylimidazo[1,2-a]pyridin-2-yl)methoxy)-6-((4-(N-hydroxycarbamimidoyl)-2,6-dimethylbenzyl)amino)pyrimidin-2-yl)propanoate] | 50 to 500
C[C@H](C(=O)Nc1cc(NCc2cn3cc(C4CC4)ccc3n2)ncn1)[C@@H](C)c1cccc(Cl)c1 [Example 133, (2S,3R)-3-(3-chlorophenyl)-N-(6-(((6-cyclopropylimidazo[1,2-a]pyridin-2-yl)methyl)amino)pyrimidin-4-yl)-2-methylbutanamide] | > 9000
O=S(=O)(Nc1cc(NCc2cn3cc(C4CC4)ccc3n2)ncn1)C1CC1c1cccc(Cl)c1 (centres unmarked) [Example 67, 2-(3-chlorophenyl)-N-(6-(((6-cyclopropylimidazo[1,2-a]pyridin-2-yl)methyl)amino)pyrimidin-4-yl)cyclopropane-1-sulfonamide] | 500 to 9000
Cc1cc(C(=N)NO)cc(C)c1CNc1cc(OCc2cn3cc(C4CC4)ccc3n2)ncn1 [Example 71, 4-(((6-((6-cyclopropylimidazo[1,2-a]pyridin-2-yl)methoxy)pyrimidin-4-yl)amino)methyl)-N-hydroxy-3,5-dimethylbenzimidamide] | 5 to 50
CCOC(=O)NC(=N)c1cc(C)c(CNc2cc(OCc3cn4cc(C5CC5)ccc4n3)ncn2)c(C)c1 [Example 83, ethyl ((4-(((6-((6-cyclopropylimidazo[1,2-a]pyridin-2-yl)methoxy)pyrimidin-4-yl)amino)methyl)-3,5-dimethylphenyl)(imino)methyl)carbamate] | 50 to 500
O[C@H]1C[C@H](c2cn3cc(C4CC4)ccc3n2)N(c2cc(NCc3cc4cc[nH]c4cc3F)ncn2)C1 [Example 140, (3S,5R)-5-(6-cyclopropylimidazo[1,2-a]pyridin-2-yl)-1-(6-(((6-fluoro-1H-indol-5-yl)methyl)amino)pyrimidin-4-yl)pyrrolidin-3-ol] | 500 to 9000
N#Cc1ccc(Cl)cc1CC(=O)Nc1cc(NCc2cn3cc(C4CC4)ccc3n2)ncn1 [Example 2, 2-(5-chloro-2-cyanophenyl)-N-(6-(((6-cyclopropylimidazo[1,2-a]pyridin-2-yl)methyl)amino)pyrimidin-4-yl)acetamide] | 500 to 9000
O=C(COc1cc(Cl)ccc1-n1cnnn1)Nc1cc(NCc2cn3cc(C4CC4)ccc3n2)ccn1 [Example 116, 2-(5-chloro-2-(1H-tetrazol-1-yl)phenoxy)-N-(4-(((6-cyclopropylimidazo[1,2-a]pyridin-2-yl)methyl)amino)pyridin-2-yl)acetamide] | 5 to 50
CC(C(=O)Nc1cc(C(F)(F)c2cn3cc(C4CC4)ccc3n2)ncn1)c1ncn2ccc(Cl)cc12 (centres unmarked) [Example 61, 2-(7-chloroimidazo[1,5-a]pyridin-1-yl)-N-(6-((6-cyclopropylimidazo[1,2-a]pyridin-2-yl)difluoromethyl)pyrimidin-4-yl)propanamide] | 500 to 9000
O[C@H]1C[C@H](c2cn3cc(C4CC4)ccc3n2)N(c2cc(NCc3cnc4[nH]cc(Cl)c4c3)ncn2)C1 [Example 137, (3S,5R)-1-(6-(((3-chloro-1H-pyrrolo[2,3-b]pyridin-5-yl)methyl)amino)pyrimidin-4-yl)-5-(6-cyclopropylimidazo[1,2-a]pyridin-2-yl)pyrrolidin-3-ol] | 50 to 500
COc1ccc2oc(=O)n(CC(=O)Nc3cc(NCc4cn5cc(C6CC6)ccc5n4)ccn3)c2c1 [Example 125, N-(4-(((6-cyclopropylimidazo[1,2-a]pyridin-2-yl)methyl)amino)pyridin-2-yl)-2-(5-methoxy-2-oxobenzo[d]oxazol-3 (2H)-yl)acetamide] | > 9000
CCCCCCOC(=O)NC(=N)c1cc(C)c(CNc2cc(OCc3cn4cc(C5CC5)ccc4n3)ncn2)c(C)c1 [Example 76, hexyl ((4-(((6-((6-cyclopropylimidazo[1,2-a]pyridin-2-yl)methoxy)pyrimidin-4-yl)amino)methyl)-3,5-dimethylphenyl)(imino)methyl)carbamate] | 50 to 500
O=C(Cc1ncn2ccc(Cl)cc12)Nc1cc(OCc2cn3cc(C4CC4)ccc3n2)ncn1 [Example 33, 2-(7-chloroimidazo[1,5-a]pyridin-1-yl)-N-(6-((6-cyclopropylimidazo[1,2-a]pyridin-2-yl)methoxy)pyrimidin-4-yl)acetamide] | 5 to 50
COc1ccnc(CC(=O)Nc2cc(NCc3cn4cc(C5CC5)cc(N5CCCC5=O)c4n3)ccn2)c1F [Example 24, N-(4-(((6-cyclopropyl-8-(2-oxopyrrolidin-1-yl)imidazo[1,2-a]pyridin-2-yl)methyl)amino)pyridin-2-yl)-2-(3-fluoro-4-methoxypyridin-2-yl)acetamide] | 5 to 50
Cc1cc(C(=N)N)cc(C)c1CNc1cc(OCc2cn3cc(C4CC4)ccc3n2)nc(CC(C)(C)C(=O)O)n1 [Example 92, 3-(4-((4-carbamimidoyl-2,6-dimethylbenzyl)amino)-6-((6-cyclopropylimidazo[1,2-a]pyridin-2-yl)methoxy)pyrimidin-2-yl)-2,2-dimethylpropanoic acid] | ≤ 5
Cc1cc(C(=N)N)cc(C)c1CNc1cc(OCc2cn3cc(C4CC4)cc(CCC(=O)O)c3n2)ncn1 [Example 97, 3-(2-(((6-((4-carbamimidoyl-2,6-dimethylbenzyl)amino)pyrimidin-4-yl)oxy)methyl)-6-cyclopropylimidazo[1,2-a]pyridin-8-yl)propanoic acid] | ≤ 5
O=C(Cc1ncn2ccc(Cl)cc12)Nc1cncnc1NCc1cn2c(F)c(C3CC3)ccc2n1 [Example 43, 2-(7-chloroimidazo[1,5-a]pyridin-1-yl)-N-(4-(((6-cyclopropyl-5-fluoroimidazo[1,2-a]pyridin-2-yl)methyl)amino)pyrimidin-5-yl)acetamide] | 5 to 50
